# Test system: p53 signaling pathway in MT373 tumors
# Experiment: MT373 syngeneic sarcoma model: mouse p53 signaling pathway profiling panel
# Assay type: in vivo
smiles,measurement,setting,value
"CCn1c(C#CCNc2ccccc2)cc2cc(CNC3CCN(C)CC3)ccc21 [Compound 1, 1-Anilino-3-{1-ethyl-5-[(1-methyl-4-piperidylamino)methyl]-1H-indol-2-yl}-2-propyne]",Dnmt1 fold increase or percent reduction vs vehicle control,"75 mg/kg BIDx1, 48 h",1.11 fold or %
same,E2f1 fold increase or percent reduction vs vehicle control,"75 mg/kg BIDx1, 48 h",1.24 fold or %
same,E2f3 fold increase or percent reduction vs vehicle control,"75 mg/kg BIDx1, 48 h",30.44 fold or %
same,Egfr fold increase or percent reduction vs vehicle control,"75 mg/kg BIDx1, 48 h",34.80 fold or %
same,Egr1 fold increase or percent reduction vs vehicle control,"75 mg/kg BIDx1, 48 h",39.68 fold or %
same,Ep300 fold increase or percent reduction vs vehicle control,"75 mg/kg BIDx1, 48 h",1.01 fold or %
same,Ercc1 fold increase or percent reduction vs vehicle control,"75 mg/kg BIDx1, 48 h",43.22 fold or %
same,Esr1 fold increase or percent reduction vs vehicle control,"75 mg/kg BIDx1, 48 h",1.78 fold or %
same,Fadd fold increase or percent reduction vs vehicle control,"75 mg/kg BIDx1, 48 h",1.13 fold or %
same,Fas fold increase or percent reduction vs vehicle control,"75 mg/kg BIDx1, 48 h",10.67 fold or %
same,Fasl fold increase or percent reduction vs vehicle control,"75 mg/kg BIDx1, 48 h",1.48 fold or %
same,Foxo3 fold increase or percent reduction vs vehicle control,"75 mg/kg BIDx1, 48 h",3.18 fold or %
same,Gadd45a fold increase or percent reduction vs vehicle control,"75 mg/kg BIDx1, 48 h",49.07 fold or %
same,Hif1a fold increase or percent reduction vs vehicle control,"75 mg/kg BIDx1, 48 h",1.22 fold or %
same,Il6 fold increase or percent reduction vs vehicle control,"75 mg/kg BIDx1, 48 h",80.18 fold or %
same,Jun fold increase or percent reduction vs vehicle control,"75 mg/kg BIDx1, 48 h",29.72 fold or %
same,Kras fold increase or percent reduction vs vehicle control,"75 mg/kg BIDx1, 48 h",1.01 fold or %
same,Lig4 fold increase or percent reduction vs vehicle control,"75 mg/kg BIDx1, 48 h",1.05 fold or %
same,Mdm2 fold increase or percent reduction vs vehicle control,"75 mg/kg BIDx1, 48 h",12.55 fold or %
same,Mdm4 fold increase or percent reduction vs vehicle control,"75 mg/kg BIDx1, 48 h",19.35 fold or %
same,Mel1 fold increase or percent reduction vs vehicle control,"75 mg/kg BIDx1, 48 h",31.09 fold or %
same,Mlh1 fold increase or percent reduction vs vehicle control,"75 mg/kg BIDx1, 48 h",7.78 fold or %
same,Msh2 fold increase or percent reduction vs vehicle control,"75 mg/kg BIDx1, 48 h",11.63 fold or %
same,Myod1 fold increase or percent reduction vs vehicle control,"75 mg/kg BIDx1, 48 h",4.06 fold or %
same,Nf1 fold increase or percent reduction vs vehicle control,"75 mg/kg BIDx1, 48 h",29.60 fold or %
same,Nfkb1 fold increase or percent reduction vs vehicle control,"75 mg/kg BIDx1, 48 h",7.16 fold or %
same,Pcna fold increase or percent reduction vs vehicle control,"75 mg/kg BIDx1, 48 h",38.45 fold or %
same,Pmaip1 fold increase or percent reduction vs vehicle control,"75 mg/kg BIDx1, 48 h",1.15 fold or %
same,Ppm1d fold increase or percent reduction vs vehicle control,"75 mg/kg BIDx1, 48 h",4.68 fold or %
same,Prc1 fold increase or percent reduction vs vehicle control,"75 mg/kg BIDx1, 48 h",16.43 fold or %
same,Prkca fold increase or percent reduction vs vehicle control,"75 mg/kg BIDx1, 48 h",13.73 fold or %
same,Pten fold increase or percent reduction vs vehicle control,"75 mg/kg BIDx1, 48 h",1.01 fold or %
same,Pttg1 fold increase or percent reduction vs vehicle control,"75 mg/kg BIDx1, 48 h",1.08 fold or %
same,Rb1 fold increase or percent reduction vs vehicle control,"75 mg/kg BIDx1, 48 h",2.55 fold or %
same,Rela fold increase or percent reduction vs vehicle control,"75 mg/kg BIDx1, 48 h",1.07 fold or %
same,Rprm fold increase or percent reduction vs vehicle control,"75 mg/kg BIDx1, 48 h",2.09 fold or %
same,Serpinb5 fold increase or percent reduction vs vehicle control,"75 mg/kg BIDx1, 48 h",1.90 fold or %
same,Sesn2 fold increase or percent reduction vs vehicle control,"75 mg/kg BIDx1, 48 h",1.57 fold or %
same,Sfn fold increase or percent reduction vs vehicle control,"75 mg/kg BIDx1, 48 h",1.00 fold or %
same,Sirt1 fold increase or percent reduction vs vehicle control,"75 mg/kg BIDx1, 48 h",1.01 fold or %
same,Stat1 fold increase or percent reduction vs vehicle control,"75 mg/kg BIDx1, 48 h",1.73 fold or %
same,Tnf fold increase or percent reduction vs vehicle control,"75 mg/kg BIDx1, 48 h",1.36 fold or %
same,Traf1 fold increase or percent reduction vs vehicle control,"75 mg/kg BIDx1, 48 h",1.38 fold or %
same,Trp53bp2 fold increase or percent reduction vs vehicle control,"75 mg/kg BIDx1, 48 h",1.06 fold or %
same,Trp53 fold increase or percent reduction vs vehicle control,"75 mg/kg BIDx1, 48 h",1.16 fold or %
same,Apex1 fold increase or percent reduction vs vehicle control,"75 mg/kg BIDx1, 72 h",24.49 fold or %
same,Atm fold increase or percent reduction vs vehicle control,"75 mg/kg BIDx1, 72 h",12.27 fold or %
same,Atr fold increase or percent reduction vs vehicle control,"75 mg/kg BIDx1, 72 h",1.01 fold or %
same,Bag1 fold increase or percent reduction vs vehicle control,"75 mg/kg BIDx1, 72 h",25.72 fold or %
same,Bax fold increase or percent reduction vs vehicle control,"75 mg/kg BIDx1, 72 h",20.93 fold or %
same,Bbc3 fold increase or percent reduction vs vehicle control,"75 mg/kg BIDx1, 72 h",1.08 fold or %
same,Bcl2 fold increase or percent reduction vs vehicle control,"75 mg/kg BIDx1, 72 h",2.76 fold or %
same,Bid fold increase or percent reduction vs vehicle control,"75 mg/kg BIDx1, 72 h",1.12 fold or %
same,Birc5 fold increase or percent reduction vs vehicle control,"75 mg/kg BIDx1, 72 h",12.81 fold or %
same,Brca1 fold increase or percent reduction vs vehicle control,"75 mg/kg BIDx1, 72 h",10.57 fold or %
same,Brca2 fold increase or percent reduction vs vehicle control,"75 mg/kg BIDx1, 72 h",12.51 fold or %
same,Btg2 fold increase or percent reduction vs vehicle control,"75 mg/kg BIDx1, 72 h",16.69 fold or %
same,Casp2 fold increase or percent reduction vs vehicle control,"75 mg/kg BIDx1, 72 h",5.88 fold or %
same,Ccnb1 fold increase or percent reduction vs vehicle control,"75 mg/kg BIDx1, 72 h",10.10 fold or %
same,Ccne1 fold increase or percent reduction vs vehicle control,"75 mg/kg BIDx1, 72 h",1.09 fold or %
same,Ccng1 fold increase or percent reduction vs vehicle control,"75 mg/kg BIDx1, 72 h",9.69 fold or %
same,Ccnh fold increase or percent reduction vs vehicle control,"75 mg/kg BIDx1, 72 h",11.39 fold or %
same,Cdc25a fold increase or percent reduction vs vehicle control,"75 mg/kg BIDx1, 72 h",7.34 fold or %
same,Cdk1 fold increase or percent reduction vs vehicle control,"75 mg/kg BIDx1, 72 h",23.09 fold or %
same,Cdk4 fold increase or percent reduction vs vehicle control,"75 mg/kg BIDx1, 72 h",22.60 fold or %
same,Cdkn1a fold increase or percent reduction vs vehicle control,"75 mg/kg BIDx1, 72 h",1.42 fold or %
same,Cdkn2a fold increase or percent reduction vs vehicle control,"75 mg/kg BIDx1, 72 h",39.53 fold or %
same,Chek1 fold increase or percent reduction vs vehicle control,"75 mg/kg BIDx1, 72 h",20.93 fold or %
same,Cradd fold increase or percent reduction vs vehicle control,"75 mg/kg BIDx1, 72 h",31.95 fold or %
same,Cul9 fold increase or percent reduction vs vehicle control,"75 mg/kg BIDx1, 72 h",1.28 fold or %
same,Dapk1 fold increase or percent reduction vs vehicle control,"75 mg/kg BIDx1, 72 h",1.11 fold or %
same,Dnmt1 fold increase or percent reduction vs vehicle control,"75 mg/kg BIDx1, 72 h",1.02 fold or %
same,E2f1 fold increase or percent reduction vs vehicle control,"75 mg/kg BIDx1, 72 h",1.14 fold or %
same,E2f3 fold increase or percent reduction vs vehicle control,"75 mg/kg BIDx1, 72 h",15.87 fold or %
same,Egfr fold increase or percent reduction vs vehicle control,"75 mg/kg BIDx1, 72 h",24.18 fold or %
same,Egr1 fold increase or percent reduction vs vehicle control,"75 mg/kg BIDx1, 72 h",40.49 fold or %
same,Ep300 fold increase or percent reduction vs vehicle control,"75 mg/kg BIDx1, 72 h",9.15 fold or %
same,Ercc1 fold increase or percent reduction vs vehicle control,"75 mg/kg BIDx1, 72 h",29.53 fold or %
same,Esr1 fold increase or percent reduction vs vehicle control,"75 mg/kg BIDx1, 72 h",1.39 fold or %
same,Fadd fold increase or percent reduction vs vehicle control,"75 mg/kg BIDx1, 72 h",1.43 fold or %
same,Fas fold increase or percent reduction vs vehicle control,"75 mg/kg BIDx1, 72 h",12.05 fold or %
same,Fasl fold increase or percent reduction vs vehicle control,"75 mg/kg BIDx1, 72 h",1.42 fold or %
same,Foxo3 fold increase or percent reduction vs vehicle control,"75 mg/kg BIDx1, 72 h",14.18 fold or %
same,Gadd45a fold increase or percent reduction vs vehicle control,"75 mg/kg BIDx1, 72 h",25.11 fold or %

# Reference: US20230049952A1, “METHODS AND COMPOUNDS FOR RESTORING MUTANT P53 FUNCTION” (PMV Pharmaceuticals, Inc., priority 2020, published 2023)
